Tests used:
human NHE-3 = molecular target: T1, human NHE-3 (Homo sapiens, UniProt P48764); assay: Cell-based assay of NHE-3 activity (human NHE3 inhibition assay); conditions: OK cells with human NHE-3 gene, BCECF pH dye, 0-30 μM test compound; for IC50: read-out: Human NHE3 pIC50 (converted)
T1 construct: expressed in transfected cells; host or cells: Opossum kidney (OK) cells (ATCC), transfected by electroporation
T1 sequence (P48764 26-834): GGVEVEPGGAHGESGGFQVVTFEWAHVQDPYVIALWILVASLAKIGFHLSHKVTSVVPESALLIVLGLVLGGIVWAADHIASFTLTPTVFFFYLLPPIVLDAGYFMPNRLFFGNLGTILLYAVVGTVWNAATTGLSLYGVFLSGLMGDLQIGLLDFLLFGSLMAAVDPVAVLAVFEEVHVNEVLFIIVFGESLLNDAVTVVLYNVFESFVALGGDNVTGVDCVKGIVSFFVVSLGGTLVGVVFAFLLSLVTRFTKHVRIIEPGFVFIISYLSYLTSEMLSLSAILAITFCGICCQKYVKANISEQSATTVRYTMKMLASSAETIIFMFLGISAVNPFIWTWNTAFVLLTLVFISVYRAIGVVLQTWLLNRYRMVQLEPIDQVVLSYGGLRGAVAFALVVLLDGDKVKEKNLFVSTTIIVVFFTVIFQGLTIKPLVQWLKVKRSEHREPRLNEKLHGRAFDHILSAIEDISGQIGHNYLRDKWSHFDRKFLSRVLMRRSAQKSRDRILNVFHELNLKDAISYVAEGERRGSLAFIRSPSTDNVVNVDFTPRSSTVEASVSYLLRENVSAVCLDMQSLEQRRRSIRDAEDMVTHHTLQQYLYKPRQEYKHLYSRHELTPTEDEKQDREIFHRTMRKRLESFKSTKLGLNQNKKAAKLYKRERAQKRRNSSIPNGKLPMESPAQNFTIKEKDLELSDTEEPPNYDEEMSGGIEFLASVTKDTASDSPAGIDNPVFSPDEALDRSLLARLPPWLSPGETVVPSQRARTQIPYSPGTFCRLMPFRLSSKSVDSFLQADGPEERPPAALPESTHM
Outline: (§1)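 Opossum kidney cells electroporated with rat or human NHE-3, loaded with 5 μM BCECF-AM in NH4Cl-HEPES pH 7.4 for 30 min at RT, then acidified 10 min in Na+-free choline HEPES. Na+-dependent pH recovery rates from BCECF fluorescence, averaged over ≥2 replicates, gave pIC50.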

Rat NHE-3 [1] = molecular target: T2, Rat NHE-3 (Rattus norvegicus, UniProt P26433); assay: Cell-based assay of NHE-3 activity (rat NHE-3 prompt inhibition); conditions: OK cells with rat NHE-3 gene, compound present during pH recovery; for IC50: read-out: Rat NHE3 pIC50 (prompt) (converted)
T2 construct: expressed in transfected cells; host or cells: Opossum kidney (OK) cells (ATCC), transfected by electroporation
Outline: as §1

[2] = test system: absorption of sodium from the intestinal lumen; assay: Inhibition of intestinal sodium absorption (urinary sodium and fecal form); format: in vivo, Sprague-Dawley rats; conditions: rat; for response vs control in vivo at 3 mg/kg: 3 mg/kg oral gavage, urine 16 h post-dose, asterisks = significance vs vehicle (*P<0.05, **P<0.01, ***P<0.001), read-out: uNa (% of vehicle); for FFS: fecal form score, scale 1 (normal pellet) to 5 (liquid fecal streams), group average, 3 mg/kg oral, 16 h post-dose, vehicle = 1
Protocol: Urinary sodium concentration and fecal form were measured to assess the ability of selected example compounds to inhibit the absorption of sodium from the intestinal lumen. Eight-week old Sprague-Dawley rats were purchased from Charles River Laboratories (Hollister, Calif.), were housed 2 per cage, and acclimated for at least 3 days before study initiation. Animals were fed Harlan Teklad Global 2018 rodent chow (Indianapolis, Ind.) and water ad libitum throughout the study and maintained in a standard light/dark cycle of 6 AM to 6 PM. On the day of the study, between 4 PM and 5 PM, a group of rats (n=6) were dosed via oral gavage with test compound at the dosage indicated or vehicle (water) at a volume of 10 mL/kg. After dose administration animals were placed in individual metabolic cages where they were also fed the same chow in meal form and watered ad libitum. At 16 h post-dose, the urine samples were collected and fecal form was assessed by two independent observations. Fecal forms were scored according to a common scale associated with increasing fecal water to the wettest observation in the cage's collection funnel (1, normal pellet; 2, pellet adhering to sides of collection funnel due to moisture; 3, loss of normal pellet shape; 4, complete loss of shape with a blotting pattern; 5, liquid fecal streams evident). A rat's fecal form score (FFS) was determined by averaging both observational scores for all rats within a group (n=6). In every study the vehicle group average was 1. For urine samples, the volumes were determined gravimetrically and centrifuged at 3,600×g. The supernatants were diluted 100-fold in deionized Milli-Q water then filtered through a 0.2 μm GHP Pall AcroPrep filter plate (Pall Life Sciences, Ann Arbor, Mich.) prior to analysis by ion chromatography. Ten microliters of each filtered extract was injected onto a Dionex ICS-3000 ion chromatograph system (Dionex, Sunnyvale, Calif.). Cations were separated by an isocratic method using 25 mM methanesulfonic acid as the eluent on an IonPac CS12A 2 mm i.d.×250 mm, 8 μm particle size cation exchange column (Dionex). Sodium was quantified using standards prepared from a cation standard mix containing Li^+, Na^+, NH4^+, K^+, Mg^2+, and Ca^2+ (Dionex). The mean mass of sodium urinated for every group in the 16 h period was determined with the vehicle group usually urinating approximately 21 mg sodium. The urine Na (uNa) for rats in the test groups were expressed as a percentage of the vehicle mean and the means were compared to that of the vehicle group by utilizing a one-way analysis of variance coupled with a Dunnett's post hoc test.

Rat NHE-3 [3] = molecular target: T2, Rat NHE-3; assay: Cell-based assay of NHE-3 activity (persistent inhibition, after washout); conditions: OK cells with rat NHE-3 gene, 60 min incubation, recovery initiated 40 min after compound washout; for IC50: read-out: Rat NHE3 pIC50 (persistent) (converted)
Outline: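 OK cells transiently expressing rat NHE-3 were exposed to 0-30 μM compound in NaCl-HEPES pH 7.4 for 60 min, then washed free of drug before NH4Cl/BCECF-AM loading and acid-loading in Na+-free choline buffer. Na+-dependent pH recovery rates (mean of ≥2 replicates) gave pIC50.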

T2 sequence (P26433 29-831): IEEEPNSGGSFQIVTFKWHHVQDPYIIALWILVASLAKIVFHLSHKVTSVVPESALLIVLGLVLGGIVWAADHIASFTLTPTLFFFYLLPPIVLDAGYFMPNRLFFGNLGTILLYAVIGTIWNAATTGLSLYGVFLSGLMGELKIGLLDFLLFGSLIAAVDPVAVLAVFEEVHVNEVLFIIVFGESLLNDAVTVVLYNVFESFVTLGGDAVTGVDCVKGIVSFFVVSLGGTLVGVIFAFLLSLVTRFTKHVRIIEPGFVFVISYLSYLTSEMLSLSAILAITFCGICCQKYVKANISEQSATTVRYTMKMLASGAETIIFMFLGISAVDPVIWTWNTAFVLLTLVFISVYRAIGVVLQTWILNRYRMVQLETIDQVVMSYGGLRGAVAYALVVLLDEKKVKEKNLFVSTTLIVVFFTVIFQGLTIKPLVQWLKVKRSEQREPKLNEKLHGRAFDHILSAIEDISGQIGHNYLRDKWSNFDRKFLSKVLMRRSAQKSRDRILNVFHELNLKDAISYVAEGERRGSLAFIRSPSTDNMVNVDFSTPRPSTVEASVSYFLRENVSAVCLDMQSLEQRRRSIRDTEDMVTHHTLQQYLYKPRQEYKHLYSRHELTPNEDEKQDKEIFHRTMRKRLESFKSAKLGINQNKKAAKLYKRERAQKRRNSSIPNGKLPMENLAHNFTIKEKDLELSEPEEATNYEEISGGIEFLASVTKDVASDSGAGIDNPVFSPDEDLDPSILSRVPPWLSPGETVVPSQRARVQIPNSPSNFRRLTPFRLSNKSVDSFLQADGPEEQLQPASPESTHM

Row | Human NHE3 pIC50 (human NHE-3) | Rat NHE3 pIC50 (prompt) (Rat NHE-3 [1]) | Rat NHE3 pIC50 (persistent) (Rat NHE-3 [3]) | IC50 (human NHE-3) [nM] | IC50 (Rat NHE-3 [1]) [nM] | IC50 (Rat NHE-3 [3]) [nM] | SMILES | response vs control in vivo at 3 mg/kg [2] [%] | FFS [2]
1 | C (C NHE3 pIC50 > 7) | C (C NHE3 pIC50 > 7) | C (C NHE3 pIC50 > 7) | – | – | – | CN1Cc2c(Cl)cc(Cl)cc2[C@H](c2cccc(S(=O)(=O)N(CCO)CCOCCOCCNC(=O)NCCCN(CCCNC(=O)NCCOCCOCCN(CCO)S(=O)(=O)c3cccc([C@@H]4CN(C)Cc5c(Cl)cc(Cl)cc54)c3)CCCNC(=O)NCCOCCOCCN(CCO)S(=O)(=O)c3cccc([C@@H]4CN(C)Cc5c(Cl)cc(Cl)cc54)c3)c2)C1 [Example 56] | 35 to 75 | –
2 | C (C NHE3 pIC50 > 7) | C (C NHE3 pIC50 > 7) | C (C NHE3 pIC50 > 7) | – | – | – | CN1Cc2c(Cl)cc(Cl)cc2[C@H](c2cccc(S(=O)(=O)NCCOCCOCCN(C)C(=O)CCC(CCC(=O)N(C)CCOCCOCCNS(=O)(=O)c3cccc([C@@H]4CN(C)Cc5c(Cl)cc(Cl)cc54)c3)(CCC(=O)N(C)CCOCCOCCNS(=O)(=O)c3cccc([C@@H]4CN(C)Cc5c(Cl)cc(Cl)cc54)c3)NC(=O)COCC(=O)O)c2)C1 [Example 70] | 35 to 75 | 2
3 | C (C NHE3 pIC50 > 7) | B (B NHE3 pIC50 5-7) | C (C NHE3 pIC50 > 7) | – | – | – | CN1CCN(C(=O)NC(CCC(=O)NCCOCCOCCNS(=O)(=O)c2cccc([C@@H]3CN(C)Cc4c(Cl)cc(Cl)cc43)c2)(CCC(=O)NCCOCCOCCNS(=O)(=O)c2cccc([C@@H]3CN(C)Cc4c(Cl)cc(Cl)cc43)c2)CCC(=O)NCCOCCOCCNS(=O)(=O)c2cccc([C@@H]3CN(C)Cc4c(Cl)cc(Cl)cc43)c2)CC1 [Example 41] | < 35 | –
4 | C (C NHE3 pIC50 > 7) | C (C NHE3 pIC50 > 7) | C (C NHE3 pIC50 > 7) | – | – | – | CN1Cc2c(Cl)cc(Cl)cc2[C@H](c2cccc(S(=O)(=O)NCCOCCOCCNC(=O)NCCCC(CCCNC(=O)NCCOCCOCCNS(=O)(=O)c3cccc([C@@H]4CN(C)Cc5c(Cl)cc(Cl)cc54)c3)(CCCNC(=O)NCCOCCOCCNS(=O)(=O)c3cccc([C@@H]4CN(C)Cc5c(Cl)cc(Cl)cc54)c3)NC(=O)CCC(=O)O)c2)C1 [Example 63] | 35 to 75 | –
5 | B (B NHE3 pIC50 5-7) | B (B NHE3 pIC50 5-7) | C (C NHE3 pIC50 > 7) | – | – | – | CN1Cc2c(Cl)cc(Cl)cc2[C@H](c2cccc(S(=O)(=O)NCCOCCOCCNC(=O)CCC(CCC(=O)NCCOCCOCCNS(=O)(=O)c3cccc([C@@H]4CN(C)Cc5c(Cl)cc(Cl)cc54)c3)(CCC(=O)NCCOCCOCCNS(=O)(=O)c3cccc([C@@H]4CN(C)Cc5c(Cl)cc(Cl)cc54)c3)NC(=O)N(C)C)c2)C1 [Example 25] | < 35 | –
6 | C (C NHE3 pIC50 > 7) | C (C NHE3 pIC50 > 7) | C (C NHE3 pIC50 > 7) | – | – | – | CN(C)CC(=O)NC(CCC(=O)N(C)CCOCCOCCNS(=O)(=O)c1cccc([C@@H]2CN(C)Cc3c(Cl)cc(Cl)cc32)c1)(CCC(=O)N(C)CCOCCOCCNS(=O)(=O)c1cccc([C@@H]2CN(C)Cc3c(Cl)cc(Cl)cc32)c1)CCC(=O)N(C)CCOCCOCCNS(=O)(=O)c1cccc([C@@H]2CN(C)Cc3c(Cl)cc(Cl)cc32)c1 [Example 68] | 35 to 75 | –
7 | – | – | – | < 100 | < 100 | < 100 | CCC(=O)NC(CCC(=O)NCCOCCOCCOCCNS(=O)(=O)c1cccc([C@@H]2CN(C)Cc3c(Cl)cc(Cl)cc32)c1)(CCC(=O)NCCOCCOCCOCCNS(=O)(=O)c1cccc([C@@H]2CN(C)Cc3c(Cl)cc(Cl)cc32)c1)CCC(=O)NCCOCCOCCOCCNS(=O)(=O)c1cccc([C@@H]2CN(C)Cc3c(Cl)cc(Cl)cc32)c1 [Example 10, 4-(1-(3-((S)-6,8-dichloro-2-methyl-1,2,3,4-tetrahydroisoquinolin-4-yl)phenylsulfonamido)-13-oxo-3,6,9-trioxa-12-azapentadecan-15-yl)-N1,N7-bis(2-(2-(2-(2-(3-((S)-6,8-dichloro-2-methyl-1,2,3,4-tetrahydroisoquinolin-4-yl)phenylsulfonamido)ethoxy)ethoxy)ethoxy)ethyl)-4-propionamidoheptanediamide] | 35 to 75 | 2
8 | C (C NHE3 pIC50 > 7) | B (B NHE3 pIC50 5-7) | C (C NHE3 pIC50 > 7) | – | – | – | CNC(=O)NC(CCC(=O)NCCOCCOCCNS(=O)(=O)c1cccc([C@@H]2CN(C)Cc3c(Cl)cc(Cl)cc32)c1)(CCC(=O)NCCOCCOCCNS(=O)(=O)c1cccc([C@@H]2CN(C)Cc3c(Cl)cc(Cl)cc32)c1)CCC(=O)NCCOCCOCCNS(=O)(=O)c1cccc([C@@H]2CN(C)Cc3c(Cl)cc(Cl)cc32)c1 [Example 26] | < 35 | –
9 | – | – | – | < 100 | < 100 | < 100 | CC(O)C(CCC(=O)NCCOCCOCCNS(=O)(=O)c1cccc([C@@H]2CN(C)Cc3c(Cl)cc(Cl)cc32)c1)(CCC(=O)NCCOCCOCCNS(=O)(=O)c1cccc([C@@H]2CN(C)Cc3c(Cl)cc(Cl)cc32)c1)CCC(=O)NCCOCCOCCNS(=O)(=O)c1cccc([C@@H]2CN(C)Cc3c(Cl)cc(Cl)cc32)c1 (stereo partly drawn) [Example 73, N1,N7-bis(2-(2-(2-(3-((S)-6,8-dichloro-2-methyl-1,2,3,4-tetrahydroisoquinolin-4-yl)phenylsulfonamido)ethoxy)ethoxy)ethyl)-4-(3-(2-(2-(2-(3-((S)-6,8-dichloro-2-methyl-1,2,3,4-tetrahydroisoquinolin-4-yl)phenylsulfonamido)ethoxy)ethoxy)ethylamino)-3-oxopropyl)-4-(1-hydroxyethyl)heptanediamide] | 35 to 75 | 2

Source: patent US10385024B2, “Compounds and methods for inhibiting NHE-mediated antiport in the treatment of disorders associated with fluid retention or salt overload and gastrointestinal tract disorders” (Ardelyx, Inc., priority 2012, dated 2019)
